# Source: US10377719B2, “Trypanosomes inhibitors” (Hoffmann-La Roche Inc., priority 2015, dated 2019)
# Test system: Trypanosoma brucei rhodesiense STIB900
# Assay: Activity against Trypanosoma brucei rhodesiense STIB900 (Alamar Blue assay)
# Type: cell-based
# Conditions: Trypanosoma brucei, 70 h, bloodstream forms of T. b. rhodesiense STIB 900, 70 h incubation
# Procedure: Activity Against Trypanosoma brucei Rhodesiense STIB900
# This stock was isolated in 1982 from a human patient in Tanzania and after several mouse passages cloned and adapted to axenic culture conditions (Baltz, T., D. Baltz, C. Giroud, and J. Crockett. 1985, Cultivation in a semi-defined medium of animal infective forms of Trypanosoma brucei, T. equiperdum, T. evansi, T. rhodesiense and T. gambiense. EMBO Journal 4:1273-1277). Minimum Essential Medium (50 μl) supplemented with 25 mM HEPES, 1 g/l additional glucose, 1% MEM non-essential amino acids (100×), 0.2 mM 2-mercaptoethanol, 1 mM Na-pyruvate and 15% heat inactivated horse serum was added to each well of a 96-well microtiter plate. Serial drug dilutions of eleven 3-fold dilution steps covering a range from […] were prepared. Then 4×10^3 bloodstream forms of T. b. rhodesiense STIB 900 in 50 μl was added to each well and the plate incubated at 37° C. under a 5% CO2 atmosphere for 70 h. 10 μl Alamar Blue (resazurin, 12.5 mg in 100 ml double-distilled water) was then added to each well and incubation continued for a further 2-4 h (Räz, B., M. Iten, Y. Grether-Buhler, R. Kaminsky, and R. Brun. 1997, The Alamar Blue assay to determine drug sensitivity of African trypanosomes (T.b. rhodesiense and T.b. gambiense) in vitro. Acta Trop 68:139-47). Then the plates were read with a Spectramax Gemini XS microplate fluorometer (Molecular Devices Cooperation, Sunnyvale, Calif., USA) using an excitation wave length of 536 nm and an emission wave length of 588 nm. The IC50 values were calculated by linear regression (Huber, W. Koella, J. C. 1993, A comparison of the three methods of estimating EC50 in studies of drug resistance of malaria parasites. Acta Trop. 55, 257-261) from the sigmoidal dose inhibition curves using SoftmaxPro software (Molecular Devices Cooperation, Sunnyvale, Calif., USA). Melarsoprol is used as control.
row,IC50,SMILES
1,0.278 µM,"N#CC1(NC(=O)[C@H](Cc2ccc(OC(F)(F)F)c(Cl)c2)NC(=O)c2cc(-c3ccc(F)cc3)n[nH]2)CC1 [Example 11, (S)—N-(3-(3-chloro-4-(trifluoromethoxy)phenyl)-1-(1-cyanocyclopropylamino)-1-oxopropan-2-yl)-3-(4-fluorophenyl)-1H-pyrazole-5-carboxamide]"
2,0.162 µM,"COc1ccc(-c2cc(C(=O)N[C@@H](Cc3ccc(OC(F)(F)F)c(Cl)c3)C(=O)NC3(C#N)CC3)[nH]n2)cc1 [Example 12, (S)—N-(3-(3-chloro-4-(trifluoromethoxy)phenyl)-1-(1-cyanocyclopropylamino)-1-oxopropan-2-yl)-3-(4-methoxyphenyl)-1H-pyrazole-5-carboxamide]"
3,0.003 µM,"N#CC1(NC(=O)[C@H](Cc2ccc(OC(F)(F)F)c(Cl)c2)NC(=O)c2cc(-c3ccccc3)no2)CC1 [Example 13, (S)—N-(3-(3-chloro-4-(trifluoromethoxy)phenyl)-1-(1-cyanocyclopropylamino)-1-oxopropan-2-yl)-3-phenylisoxazole-5-carboxamide]"
4,0.145 µM,"Cc1nn(-c2ccccc2)nc1C(=O)N[C@@H](Cc1ccc(OC(F)(F)F)c(Cl)c1)C(=O)NC1(C#N)CC1 [Example 14, (S)—N-(3-(3-chloro-4-(trifluoromethoxy)phenyl)-1-(1-cyanocyclopropylamino)-1-oxopropan-2-yl)-5-methyl-2-phenyl-2H-1,2,3-triazole-4-carboxamide]"
5,0.005 µM,"N#CC1(NC(=O)[C@H](Cc2ccc(OC(F)(F)F)c(Cl)c2)NC(=O)c2noc(-c3cccc(F)c3)n2)CC1 [Example 15, (S)—N-(3-(3-chloro-4-(trifluoromethoxy)phenyl)-1-(1-cyanocyclopropylamino)-1-oxopropan-2-yl)-5-(3-fluorophenyl)-1,2,4-oxadiazole-3-carboxamide]"
6,0.005 µM,"N#CC1(NC(=O)[C@H](Cc2ccc(OC(F)(F)F)c(Cl)c2)NC(=O)c2cnn(-c3ccccc3)n2)CC1 [Example 16, (S)—N-(3-(3-chloro-4-(trifluoromethoxy)phenyl)-1-(1-cyanocyclopropylamino)-1-oxopropan-2-yl)-2-phenyl-2H-1,2,3-triazole-4-carboxamide]"
7,0.413 µM,"Cn1nc(-c2cccc(Cl)c2)cc1C(=O)N[C@@H](Cc1ccc(OC(F)(F)F)c(Cl)c1)C(=O)NC1(C#N)CC1 [Example 17, (S)—N-(3-(3-chloro-4-(trifluoromethoxy)phenyl)-1-(1-cyanocyclopropylamino)-1-oxopropan-2-yl)-3-(3-chlorophenyl)-1-methyl-1H-pyrazole-5-carboxamide]"
8,0.007 µM,"N#CC1(NC(=O)[C@H](Cc2ccc(OC(F)(F)F)c(Cl)c2)NC(=O)c2noc(-c3cccc(Cl)c3)n2)CC1 [Example 18, (S)—N-(3-(3-chloro-4-(trifluoromethoxy)phenyl)-1-(1-cyanocyclopropylamino)-1-oxopropan-2-yl)-5-(3-chlorophenyl)-1,2,4-oxadiazole-3-carboxamide]"
9,10.1 µM,"N#CC1(NC(=O)[C@H](Cc2ccc(OC(F)(F)F)c(Cl)c2)NC(c2nnc(-c3ccc(Br)cc3)o2)C(F)(F)F)CC1 (stereo partly drawn) [Example 19, (2S)-2-[[1-[5-(4-bromophenyl)-1,3,4-oxadiazol-2-yl]-2,2,2-trifluoroethyl]amino]-3-[3-chloro-4-(trifluoromethoxy)phenyl]-N-(1-cyanocyclopropyl)propanamide]"
10,16.6 µM,"N#CC1(NC(=O)[C@H](Cc2ccc(OC(F)(F)F)c(Cl)c2)NC(c2nnc(-c3ccccc3)o2)C(F)(F)F)CC1 (stereo partly drawn) [Example 22, (2S)-3-(3-chloro-4-(trifluoromethoxy)phenyl)-N-(1-cyanocyclopropyl)-2-(2,2,2-trifluoro-1-(5-phenyl-1,3,4-oxadiazol-2-yl)ethylamino)propanamide]"
11,0.067 µM,"CSc1ccc(-n2ncc(C(=O)N[C@@H](Cc3ccc(OC(F)(F)F)c(Cl)c3)C(=O)NC3(C#N)CC3)n2)cc1 [Example 23, N-[(2S)-3-[3-chloro-4-(trifluoromethoxy)phenyl]-1-[(1-cyanocyclopropyl)amino]-1-oxopropan-2-yl]-2-(4-methylsulfanylphenyl)triazole-4-carboxamide]"
12,0.022 µM,"N#CC1(NC(=O)[C@H](Cc2ccc(OC(F)(F)F)c(Cl)c2)NC(=O)c2cnn(-c3ccc(Cl)cc3)n2)CC1 [Example 24, 2-(4-chlorophenyl)-N-[(2S)-3-[3-chloro-4-(trifluoromethoxy)phenyl]-1-[(1-cyanocyclopropyl)amino]-1-oxopropan-2-yl]triazole-4-carboxamide]"
13,1.33 µM,"N#CC1(NC(=O)[C@H](Cc2cccc(Cl)c2)NC(=O)c2cnn(-c3ccc(F)cc3)n2)CC1 [Example 25, N-[(2S)-3-(3-chlorophenyl)-1-[(1-cyanocyclopropyl)amino]-1-oxopropan-2-yl]-2-(4-fluorophenyl)triazole-4-carboxamide]"

# Continued, molecule first:
row,SMILES,IC50
1,"N#CC1(NC(=O)[C@H](Cc2ccc(OC(F)(F)F)c(Cl)c2)NC(=O)c2cc(C(F)(F)F)nn2CC(F)F)CC1 [Example 1, (S)—N-(3-(3-chloro-4-(trifluoromethoxy)phenyl)-1-(1-cyanocyclopropylamino)-1-oxopropan-2-yl)-1-(2,2-difluoroethyl)-3-(trifluoromethyl)-1H-pyrazole-5-carboxamide]",0.003 µM
2,"Cn1nc(C(F)(F)F)cc1C(=O)N[C@@H](Cc1ccc(OC(F)(F)F)c(Cl)c1)C(=O)NC1(C#N)CC1 [Example 2, (S)—N-(3-(3-chloro-4-(trifluoromethoxy)phenyl)-1-(1-cyanocyclopropylamino)-1-oxopropan-2-yl)-1-methyl-3-(trifluoromethyl)-1H-pyrazole-5-carboxamide]",0.005 µM
3,"Cc1cc(C(=O)N[C@@H](Cc2ccc(OC(F)(F)F)c(Cl)c2)C(=O)NC2(C#N)CC2)n(C)n1 [Example 3, (S)—N-(3-(3-chloro-4-(trifluoromethoxy)phenyl)-1-(1-cyanocyclopropylamino)-1-oxopropan-2-yl)-1,3-dimethyl-1H-pyrazole-5-carboxamide]",0.071 µM
4,"Cn1nc(C2CC2)cc1C(=O)N[C@@H](Cc1ccc(OC(F)(F)F)c(Cl)c1)C(=O)NC1(C#N)CC1 [Example 4, (S)—N-(3-(3-chloro-4-(trifluoromethoxy)phenyl)-1-(1-cyanocyclopropylamino)-1-oxopropan-2-yl)-3-cyclopropyl-1-methyl-1H-pyrazole-5-carboxamide]",0.005 µM
5,"Cn1nc(C(C)(C)C)cc1C(=O)N[C@@H](Cc1ccc(OC(F)(F)F)c(Cl)c1)C(=O)NC1(C#N)CC1 [Example 5, (S)-3-tert-butyl-N-(3-(3-chloro-4-(trifluoromethoxy)phenyl)-1-(1-cyanocyclopropylamino)-1-oxopropan-2-yl)-1-methyl-1H-pyrazole-5-carboxamide]",4.43 µM
6,"N#CC1(NC(=O)[C@H](Cc2ccc(OC(F)(F)F)c(Cl)c2)NC(=O)c2ccn(-c3ccc(F)cc3)n2)CC1 [Example 6, (S)—N-(3-(3-chloro-4-(trifluoromethoxy)phenyl)-1-(1-cyanocyclopropylamino)-1-oxopropan-2-yl)-1-(4-fluorophenyl)-1H-pyrazole-3-carboxamide]",0.05 µM
7,"Cn1nc(-c2ccccc2)cc1C(=O)N[C@@H](Cc1ccc(OC(F)(F)F)c(Cl)c1)C(=O)NC1(C#N)CC1 [Example 7, (S)—N-(3-(3-chloro-4-(trifluoromethoxy)phenyl)-1-(1-cyanocyclopropylamino)-1-oxopropan-2-yl)-1-methyl-3-phenyl-1H-pyrazole-5-carboxamide]",0.02 µM
8,"Cc1oc(-c2ccc(Cl)cc2)nc1C(=O)N[C@@H](Cc1ccc(OC(F)(F)F)c(Cl)c1)C(=O)NC1(C#N)CC1 [Example 8, (S)—N-(3-(3-chloro-4-(trifluoromethoxy)phenyl)-1-(1-cyanocyclopropylamino)-1-oxopropan-2-yl)-2-(4-chlorophenyl)-5-methyloxazole-4-carboxamide]",0.068 µM
9,"N#CC1(NC(=O)[C@H](Cc2ccc(OC(F)(F)F)c(Cl)c2)NC(=O)c2cnn(-c3ccc(F)cc3)n2)CC1 [Example 9, (S)—N-(3-(3-chloro-4-(trifluoromethoxy)phenyl)-1-(1-cyanocyclopropylamino)-1-oxopropan-2-yl)-2-(4-fluorophenyl)-2H-1,2,3-triazole-4-carboxamide]",0.009 µM
10,"N#CC1(NC(=O)[C@H](Cc2ccc(OC(F)(F)F)c(Cl)c2)NC(=O)c2cc(-c3ccccc3Cl)n[nH]2)CC1 [Example 10, (S)—N-(3-(3-chloro-4-(trifluoromethoxy)phenyl)-1-(1-cyanocyclopropylamino)-1-oxopropan-2-yl)-3-(2-chlorophenyl)-1H-pyrazole-5-carboxamide]",0.013 µM

# Same assay, conditions: bloodstream forms of T. b. rhodesiense STIB 900, 70 h incubation
row,IC50,SMILES
1,16.1 µM,"N#CC1(NC(=O)[C@H](Cc2ccc(OC(F)(F)F)c(Cl)c2)NC(c2nnc(-c3ccc(Br)cc3)o2)C(F)(F)F)CC1 (stereo partly drawn) [Example 20, (2S)-2-(1-(5-(4-bromophenyl)-1,3,4-oxadiazol-2-yl)-2,2,2-trifluoroethylamino)-3-(3-chloro-4-(trifluoromethoxy)phenyl)-N-(1-cyanocyclopropyl)propanamide]"
